The values below come from patent US11236046B2, “Substituted heterocyclic sulfonamide compounds useful as TRPA1 modulators” (Genentech, Inc., priority 2013, dated 2022).

Molecules are shown by their SMILES.

The target of this assay is human TRPA1 (Homo sapiens (Human), UniProt O75762). In words: FLIPR Tetra calcium influx assay, block of cinnamaldehyde-induced calcium influx in CHO cells expressing TRPA1 (human). It is filed as cell-based. The conditions noted are these: 20 min compound incubation, 75 uM cinnamaldehyde (~EC80), Hill coefficient fixed to 1.5, read-out: hTRPA1 AUC IC50. The procedure: IC50 Determinations of Exemplified Compounds.
Sequence of human TRPA1 (O75762 whole entry): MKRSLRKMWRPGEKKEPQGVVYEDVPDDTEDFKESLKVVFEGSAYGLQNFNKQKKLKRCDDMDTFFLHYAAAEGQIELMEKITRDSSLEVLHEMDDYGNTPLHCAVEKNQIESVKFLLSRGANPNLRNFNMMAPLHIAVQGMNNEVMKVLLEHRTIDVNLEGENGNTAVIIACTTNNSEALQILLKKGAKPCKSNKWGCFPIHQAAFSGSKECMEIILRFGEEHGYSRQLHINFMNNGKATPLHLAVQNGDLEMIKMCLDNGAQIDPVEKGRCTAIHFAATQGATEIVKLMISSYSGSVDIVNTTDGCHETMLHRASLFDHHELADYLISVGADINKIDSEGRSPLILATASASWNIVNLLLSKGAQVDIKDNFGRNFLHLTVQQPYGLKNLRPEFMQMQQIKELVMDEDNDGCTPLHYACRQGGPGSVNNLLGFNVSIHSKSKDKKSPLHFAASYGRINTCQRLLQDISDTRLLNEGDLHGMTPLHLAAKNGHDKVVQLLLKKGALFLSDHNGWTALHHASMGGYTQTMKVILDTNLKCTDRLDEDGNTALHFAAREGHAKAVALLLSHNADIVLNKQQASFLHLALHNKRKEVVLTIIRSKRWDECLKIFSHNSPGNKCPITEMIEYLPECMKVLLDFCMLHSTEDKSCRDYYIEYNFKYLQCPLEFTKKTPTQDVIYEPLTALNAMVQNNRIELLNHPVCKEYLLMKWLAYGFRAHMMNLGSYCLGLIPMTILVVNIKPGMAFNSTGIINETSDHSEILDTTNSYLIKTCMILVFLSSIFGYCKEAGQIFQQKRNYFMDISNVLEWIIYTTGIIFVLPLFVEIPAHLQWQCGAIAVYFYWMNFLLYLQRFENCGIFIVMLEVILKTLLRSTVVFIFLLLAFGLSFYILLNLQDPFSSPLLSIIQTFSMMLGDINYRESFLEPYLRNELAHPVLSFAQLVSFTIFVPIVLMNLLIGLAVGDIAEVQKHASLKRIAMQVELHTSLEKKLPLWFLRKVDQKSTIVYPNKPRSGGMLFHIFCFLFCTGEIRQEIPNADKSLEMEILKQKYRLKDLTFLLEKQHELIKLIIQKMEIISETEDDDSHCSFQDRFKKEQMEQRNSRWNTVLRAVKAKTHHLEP
IC50s (effective concentration) of compounds on the human and rat TRPA1 channels were determined using a FLIPR Tetra instrument. CHO cells expressing TRPA1 were plated into 384-well plates, incubated overnight at 37C, and loaded with BD calcium indicator dye for 1 hr at 37° C. followed by 15 minutes. at room temperature. The assay buffer was Hank's Balanced Salt Solution (HBSS) containing 20 mM HEPES (pH readjusted to 7.4) along with 0.02% BSA.
Following dye load and plate cool down, compounds were added to the cells using FLIPR Tetra. Plates were then incubated with compounds for 20 minutes at room temperature prior to adding agonist. Following this incubation, ˜EC80 concentration of cinnamaldehyde (75 uM for human TRPA1 and 45 uM for rat TRPA1) was added to active the channels and block of cinnamaldehyde induced calcium influx was measured.
Fixing the Hill coefficient will generally reduce variability of the IC50 determination. The IC50s were individually examined to make sure the MIN and MAX points were set correctly prior to validation of the results.
Turning to `O=C(NCc1ccnc(-c2cnc(C(F)(F)F)cn2)c1)[C@@H]1C[C@@H](F)CN1S(=O)(=O)c1ccc(F)cc1` [Example 67, (2S,4R)-4-fluoro-1-(4-fluorophenyl)sulfonyl-N-[[2-[5-(trifluoromethyl)pyrazin-2-yl]-4-pyridyl]methyl]pyrrolidine-2-carboxamide], the IC50 was determined as 290 nM.

In the case of `O=C(NCc1cc(F)cc(-c2cnc(C(F)(F)F)cn2)c1)[C@@H]1[C@@H](F)CCN1S(=O)(=O)c1ccc(F)cc1` [Example 98, (2R,3S)-3-fluoro-N-([3-fluoro-5-[5-(trifluoromethyl)pyrazin-2-yl]phenyl]methyl)-1-[(4-fluorobenzene)sulfonyl]pyrrolidine-2-carboxamide], the IC50 worked out at 4 nM. Next, `Cc1cc(CNC(=O)[C@@H]2C[C@@H](F)CN2S(=O)(=O)c2ccc(F)cc2)cc(-c2cnc(C(F)(F)F)nc2)n1` [Example 43, (2S,4R)-4-fluoro-1-(4-fluorophenyl)sulfonyl-N-[[2-methyl-6-[2-(trifluoromethyl)pyrimidin-5-yl]-4-pyridyl]methyl]pyrrolidine-2-carboxamide]: 47 nM; `O=C(NCc1cc(-c2ccc(C(F)(F)F)c(F)c2)ncn1)[C@@H]1C[C@@H](F)CN1S(=O)(=O)c1ccc(F)cc1` [Example 114, (2S,4R)-4-fluoro-N-([6-[3-fluoro-4-(trifluoromethyl)phenyl]pyrimidin-4-yl]methyl)-1-[(4-fluorobenzene)sulfonyl]pyrrolidine-2-carboxamide]: 26 nM. Next, `COc1nn(-c2ccc(C(F)(F)F)nc2)cc1CNC(=O)[C@@H]1[C@@H](F)CCN1S(=O)(=O)c1ccc(F)cc1` [Example 103, (2R,3S)-3-fluoro-1-(4-fluorophenylsulfonyl)-N-((3-methoxy-1-(6-(trifluoromethyl)pyridin-3-yl)-1H-pyrazol-4-yl)methyl)pyrrolidine-2-carboxamide]: 26 nM.

On to `O=C(NCc1cc(-c2ccc(C(F)(F)F)nc2)ccn1)[C@@H]1C[C@@H](F)CN1S(=O)(=O)c1ccc(F)cc1` [Example 81, (2S,4R)-4-fluoro-1-(4-fluorophenyl)sulfonyl-N-[[4-[6-(trifluoromethyl)-3-pyridyl]-2-pyridyl]methyl]pyrrolidine-2-carboxamide], for which the IC50 came to 187 nM. Next, `O=C(NCc1cc(-c2ccc(C(F)F)cc2)ncn1)[C@@H]1[C@@H](F)CCN1S(=O)(=O)c1ccc(F)cc1` [Example 55, (2R,3S)—N-[[6-[4-(difluoromethyl)phenyl]pyrimidin-4-yl]methyl]-3-fluoro-1-(4-fluorophenyl)sulfonyl-pyrrolidine-2-carboxamide]: 33 nM; `C[C@@]1(F)C[C@@H](C(=O)NCc2cc(F)cc(-c3cnc(C(F)(F)F)cn3)c2)N(S(=O)(=O)c2ccc(F)cc2)C1` [Example 47, (2S,4R)-4-fluoro-N-(3-fluoro-5-(5-(trifluoromethyl)pyrazin-2-yl)benzyl)-1-((4-fluorophenyl)sulfonyl)-4-methylpyrrolidine-2-carboxamide]: 11 nM; `O=C(NCc1cc(-c2ccc(OC(F)F)cc2)c(F)cn1)[C@@H]1C[C@@H](F)CN1S(=O)(=O)c1ccc(F)cc1` [Example 77, (2S,4R)—N-([4-[4-(difluoromethoxy)phenyl]-5-fluoropyridin-2-yl]methyl)-4-fluoro-1-[(4-fluorobenzene)sulfonyl]pyrrolidine-2-carboxamide]: 53 nM. The value for `O=C(NCc1cc(-c2ccc(OC(F)(F)F)c(F)c2)ncn1)[C@@H]1C[C@@H](F)CN1S(=O)(=O)c1ccc(F)cc1` [Example 104, (2S,4R)-4-fluoro-N-([6-[3-fluoro-4-(trifluoromethoxy)phenyl]pyrimidin-4-yl]methyl)-1-[(4-fluorobenzene)sulfonyl]pyrrolidine-2-carboxamide] was 72 nM; that for `N#Cc1ccc(-c2cnc(C(F)(F)F)nc2)cc1CNC(=O)[C@@H]1[C@H]2C[C@H]2CN1S(=O)(=O)c1ccc(F)cc1` [Example 176, (1S,2S,5R)—N-(2-cyano-5-(2-(trifluoromethyl)pyrimidin-5-yl)benzyl)-3-((4-fluorophenyl)sulfonyl)-3-azabicyclo[3.1.0]hexane-2-carboxamide] was 8 nM; that for `N#Cc1cc(CNC(=O)[C@@H]2C[C@@H](F)CN2S(=O)(=O)c2ccc(F)cc2)cc(-c2ccc(C(F)(F)F)nc2)c1` [Example 112, (2S,4R)—N-[[3-cyano-5-[6-(trifluoromethyl)-3-pyridyl]phenyl]methyl]-4-fluoro-1-(4-fluorophenyl)sulfonyl-pyrrolidine-2-carboxamide] was 48 nM.

`C[C@@]1(F)C[C@@H](C(=O)NCc2cc(-c3ccc(OC(F)(F)F)cc3)ncn2)N(S(=O)(=O)c2ccc(F)cc2)C1` [Example 46, (2S,4R)-4-fluoro-1-((4-fluorophenyl)sulfonyl)-4-methyl-N-((6-(4-(trifluoromethoxy)phenyl)pyrimidin-4-yl)methyl)pyrrolidine-2-carboxamide]: the IC50 is 20 nM.

As for `O=C(NCc1ccnc(-c2cnc(C(F)(F)F)nc2)c1)[C@@H]1[C@H]2C[C@H]2CN1S(=O)(=O)c1ccc(F)cc1` [Example 172, (1R,4S,5S)-3-(4-fluorophenyl)sulfonyl-N-[[2-[2-(trifluoromethyl)pyrimidin-5-yl]-4-pyridyl]methyl]-3-azabicyclo[3.1.0]hexane-4-carboxamide], the IC50 was 38 nM. Next, `O=C(NCc1cc(-c2ccc(C(F)(F)F)cn2)ccn1)[C@@H]1C[C@@H](F)CN1S(=O)(=O)c1ccc(F)cc1` [Example 131, (2S,4R)-4-fluoro-1-(4-fluorophenyl)sulfonyl-N-[[4-[5-(trifluoromethyl)-2-pyridyl]-2-pyridyl]methyl]pyrrolidine-2-carboxamide]: 102 nM; `COc1nn(-c2cnc(C(F)(F)F)cn2)cc1CNC(=O)[C@@H]1C[C@@H](F)CN1S(=O)(=O)c1ccc(F)cc1` [Example 58, (2S,4R)-4-fluoro-1-(4-fluorophenyl)sulfonyl-N-[[3-methoxy-1-[5-(trifluoromethyl)pyrazin-2-yl]pyrazol-4-yl]methyl]pyrrolidine-2-carboxamide]: 14 nM; `O=C(NCc1cc(F)cc(-c2nc(C(F)(F)F)cs2)c1)[C@@H]1C[C@@H](F)CN1S(=O)(=O)c1ccc(F)cc1` [Example 175, (2S,4R)-4-fluoro-1-(4-fluorophenyl)sulfonyl-N-[[3-fluoro-5-[4-(trifluoromethyl)thiazol-2-yl]phenyl]methyl]pyrrolidine-2-carboxamide]: 86 nM.

Turning to `O=C(NCc1cc(-c2ccc(C(F)(F)F)cc2)ccc1F)[C@@H]1C[C@@H](F)CN1S(=O)(=O)c1ccc(F)cc1` [Example 177, (2S,4R)-4-fluoro-N-((4-fluoro-4′-(trifluoromethyl)-[1,1′-biphenyl]-3-yl)methyl)-1-((4-fluorophenyl)sulfonyl)pyrrolidine-2-carboxamide], the IC50 is 5 nM.

On to `C[C@@H]1CC[C@@H](C(=O)NCc2cc(-c3ccc(C(F)(F)F)nc3)ncn2)N1S(=O)(=O)c1ccc(F)cc1` [Example 39, (2S,5R)-1-[(4-fluorobenzene)sulfonyl]-5-methyl-N-([6-[6-(trifluoromethyl)pyridin-3-yl]pyrimidin-4-yl]methyl)pyrrolidine-2-carboxamide], for which the IC50 is 45 nM.

A word on the IC50: it is the concentration that gives 50% inhibition.
